Data published in patent US6576625B2, “Targeted vesicular constructs for cytoprotection and treatment of H. pylori infections” (Panacea Biotic Limited, priority 2001, dated 2003).

System: NSAID induced, gastric lesions followed by colonization of gastric mucosa by orally delivered H. felis
Test: Ulcer healing (cytorepairing and cytoprotective performance) in rats, Sakita's classification
Format: in vivo, albino male rats of Wistar origin
Settings: at the same MIC90 level
Procedure: The cytorepairing and cytoprotective performance of the prepared liposomes was assessed in albino male rats of Wistar origin. The level of ulcer healing (%RUh) following the administration of liposomes against the NSAID induced, gastric lesions followed by colonization of gastric mucosa by orally delivered H. felis suspension culture was studied. The degree of ulceration and rate of ulcer healing was determined following the classification of Sakita (Sakita, T., Oguro, Y., Miwa, T., 1981, In: Handbook of Intestinal Endoscopy 1 ed., Tokyo: Chugi-Igakusha, 375-396) and Tamada (Tamada, F., 1992, In: Diagnostic and Therapeutic Gastrointestinal Endoscopy, KSH Hospital, 23-25), both incorporated herein by reference. Histopathological examination of the gastric mucosa was done using phase contrast research microscope (Leitz-Biomed, Germany).

SMILES: CC1(C)S[C@@H]2[C@H](NC(=O)[C@H](N)c3ccc(O)cc3)C(=O)N2[C@H]1C(=O)O [amoxycillin, Amoxycillin]
- recovery (ulcer healing): 33.3%
